Experimental data reported in PMC2921948 (Clinical cancer research : an official journal of the …, 2010).
pIC50: −log10 of the molar value. Where two headings read alike, the source gives them in different places.

Legend:
[1] = target: T1, human serum albumin (HSA) (Homo sapiens, UniProt P02768); assay: fluorescence polarization displacement of dansyl sarcosine; assay type: binding
[2] = target: T1, human serum albumin (HSA); assay: as above; assay type: binding; remark: listed apart in the source

T1 sequence (P02768 25-609): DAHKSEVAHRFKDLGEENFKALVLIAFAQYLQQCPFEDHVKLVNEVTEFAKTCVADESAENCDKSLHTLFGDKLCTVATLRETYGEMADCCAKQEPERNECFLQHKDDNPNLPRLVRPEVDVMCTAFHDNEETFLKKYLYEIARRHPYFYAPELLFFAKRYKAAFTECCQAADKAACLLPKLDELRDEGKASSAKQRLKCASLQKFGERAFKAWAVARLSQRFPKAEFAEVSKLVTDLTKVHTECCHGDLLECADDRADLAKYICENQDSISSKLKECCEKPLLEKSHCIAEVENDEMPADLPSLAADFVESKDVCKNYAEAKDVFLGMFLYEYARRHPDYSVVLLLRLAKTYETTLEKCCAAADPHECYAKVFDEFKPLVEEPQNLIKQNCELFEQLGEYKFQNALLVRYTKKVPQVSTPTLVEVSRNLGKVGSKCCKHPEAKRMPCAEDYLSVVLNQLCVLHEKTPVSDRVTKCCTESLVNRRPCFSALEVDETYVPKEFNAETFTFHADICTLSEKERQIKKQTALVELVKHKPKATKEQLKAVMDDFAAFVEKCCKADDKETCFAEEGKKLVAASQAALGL

Row | pIC50 [1] | pIC50 [2] | Compound
1 | 4.43 |  | CC1(C)CCC(c2ccc(Cl)cc2)=C(CN2CCN(c3ccc(C(=O)NS(=O)(=O)c4ccc(N[C@H](CCN5CCOCC5)CSc5ccccc5)c(S(=O)(=O)C(F)(F)F)c4)cc3)CC2)C1 [ABT-263]
2 |  | 3.15 | CN(C)CC[C@H](CSc1ccccc1)Nc1ccc(S(=O)(=O)NC(=O)c2ccc(N3CCN(Cc4ccccc4-c4ccc(Cl)cc4)CC3)cc2)cc1[N+](=O)[O-] [ABT-737]
